The source made the active and inactive calls. No cut-off for these calls is given here.
How the values were obtained:
[1] = Inhibition of recombinant Trypanosoma cruzi G6PDH expressed in Escherichia coli by fluorescence assay
[2] = target: T1, Glucose-6-phosphate 1-dehydrogenase (Homo sapiens, UniProt P11413); experiment: Inhibition of recombinant human G6PDH expressed in Escherichia coli at 80 uM by fluorescence assay
[3] = Selectivity index, ratio of IC50 for human G6PDH to IC50 for Trypanosoma cruzi G6PDH
H9c2 [4] = experiment: Cytotoxicity against rat H9c2 cells at 20 uM after 72 hrs by Hoechst 33342 staining based fluorescence microscopy; assay type: cell-based; conditions: h9c2, 72 h
Trypanosoma cruzi [5] = experiment: Antitrypanosomal activity against Trypanosoma cruzi Y amastigotes infected in rat H9C2 cells assessed as reduction in parasite infection at 20 uM after 72 hrs by Hoechst 33342 staining based fluorescence microscopy; assay type: functional, organism-based
[6] = target: T1, Glucose-6-phosphate 1-dehydrogenase; experiment: Inhibition of recombinant human G6PDH expressed in Escherichia coli by fluorescence assay
[7] = Selectivity index, ratio of EC50 for cytotoxicity against rat H9C2 cells to EC50 for antitrypanosomal activity against Trypanosoma cruzi Y amastigotes infected in rat H9C2 cells; assay type: toxicity, cell-based; conditions: read-out: Ratio EC50
H9c2 [8] = experiment: Cytotoxicity against rat H9c2 cells after 72 hrs by Hoechst 33342 staining based fluorescence microscopy; assay type: cell-based; conditions: H9c2, 72 h
Trypanosoma cruzi [9] = experiment: Antitrypanosomal activity against Trypanosoma cruzi Y amastigotes infected in rat H9C2 cells after 72 hrs by Hoechst 33342 staining based fluorescence microscopy; assay type: functional, organism-based; conditions: H9c2, 72 h
Trypanosoma cruzi [10] = experiment: Antitrypanosomal activity against Trypanosoma cruzi Y amastigotes infected in rat H9C2 rat cells assessed as reduction in number of infected cells at 10 uM after 72 hrs by Hoechst 33342 staining based fluorescence microscopy; assay type: functional, organism-based

T1 sequence (P11413 whole entry): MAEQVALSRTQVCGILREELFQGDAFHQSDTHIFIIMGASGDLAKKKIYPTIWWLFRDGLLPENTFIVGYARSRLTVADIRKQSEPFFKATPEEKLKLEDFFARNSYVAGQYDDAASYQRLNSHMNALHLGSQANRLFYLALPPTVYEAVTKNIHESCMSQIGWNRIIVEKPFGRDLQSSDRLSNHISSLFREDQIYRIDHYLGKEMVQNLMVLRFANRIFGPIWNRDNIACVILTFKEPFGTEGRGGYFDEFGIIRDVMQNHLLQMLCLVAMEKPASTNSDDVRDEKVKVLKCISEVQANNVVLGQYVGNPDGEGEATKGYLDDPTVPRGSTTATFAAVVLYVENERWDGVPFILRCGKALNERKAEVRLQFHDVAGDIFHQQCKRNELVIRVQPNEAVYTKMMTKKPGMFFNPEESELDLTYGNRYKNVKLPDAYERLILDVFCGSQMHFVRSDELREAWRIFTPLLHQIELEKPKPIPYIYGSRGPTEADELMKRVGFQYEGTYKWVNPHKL

Compound	IC50 [1] [µM]	Activity (H9c2 [4])	Activity (Trypanosoma cruzi [5])	EC50 (H9c2 [8]) [µM]	also measured
CC(C)C(=O)O[C@H]1CC[C@@]2(C)[C@@H](CC[C@@H]3[C@@H]2CC[C@]2(C)C(=O)[C@H](Br)C[C@@H]32)C1	0.15 to 0.38				inhibition (INH) [2]: Not Active; Ratio IC50 [3]: > 400
C=CCC(=O)O[C@H]1CC[C@@]2(C)[C@@H](CC[C@@H]3[C@@H]2CC[C@]2(C)C(=O)CC[C@@H]32)C1	> 3	Non-Toxic	inactive		
CC(C)C(=O)O[C@H]1CC[C@@]2(C)[C@@H](CC[C@@H]3[C@@H]2CC[C@]2(C)C(=O)CC[C@@H]32)C1	> 3	Non-Toxic	inactive		
CN1CCN(CCC(=O)O[C@H]2CC[C@@]3(C)[C@@H](CC[C@@H]4[C@@H]3CC[C@]3(C)C(=O)CC[C@@H]43)C2)CC1	10				
CO[C@H]1CC[C@@]2(C)[C@@H](CC[C@@H]3[C@@H]2CC[C@]2(C)C(=O)CC[C@@H]32)C1		Non-Toxic	inactive		
CN1CCN(C[C@@H](O)CO[C@H]2CC[C@@]3(C)[C@@H](CC[C@@H]4[C@@H]3CC[C@]3(C)C(=O)CC[C@@H]43)C2)CC1					IC50 [6]: > 40 µM
C[C@]12CC[C@H](O)C[C@@H]1CC[C@@H]1[C@@H]2CC[C@]2(C)C(=O)[C@H](Br)C[C@@H]12 [16.ALPHA.-BROMOEPIANDROSTERONE]		Toxic	Active	13	selectivity ratio [7]: 2; EC50 (Trypanosoma cruzi [9]): 6.4 µM; Ratio IC50 [3]: 2
C[C@]12CCCC[C@@H]1CC[C@@H]1[C@@H]2CC[C@]2(C)C(=O)[C@H](Br)C[C@@H]12		Toxic	Active	8.4	selectivity ratio [7]: 2.4; EC50 (Trypanosoma cruzi [9]): 3.5 µM
C[C@]12CC[C@H](OCCS(=O)(=O)N3CCOCC3)C[C@@H]1CC[C@@H]1[C@@H]2CC[C@]2(C)C(=O)CC[C@@H]12	20				
CC(=O)O[C@H]1CC[C@@]2(C)[C@@H](CC[C@@H]3[C@@H]2CC[C@]2(C)C(=O)[C@H](Br)C[C@@H]32)C1	0.15 to 0.38	Toxic	Active	14.7	selectivity ratio [7]: 1.7; EC50 (Trypanosoma cruzi [9]): 8.5 µM; Ratio IC50 [3]: 160
C[C@]12CC[C@H](OC[C@@H](O)CN3CCOCC3)C[C@@H]1CC[C@@H]1[C@@H]2CC[C@]2(C)C(=O)CC[C@@H]12					IC50 [6]: > 40 µM
C[C@]12CC[C@H](OS(C)(=O)=O)C[C@@H]1CC[C@@H]1[C@@H]2CC[C@]2(C)C(=O)CC[C@@H]12		Non-Toxic	inactive		Ratio IC50 [3]: 2
C[C@]12CC[C@H](OS(C)(=O)=O)C[C@@H]1CC[C@@H]1[C@@H]2CC[C@]2(C)C(=O)[C@H](Br)C[C@@H]12		Toxic	Active	7.5	selectivity ratio [7]: 3.1; Activity (Trypanosoma cruzi [10]): Active; EC50 (Trypanosoma cruzi [9]): 2.4 µM; Ratio IC50 [3]: 6
C=CCC(=O)O[C@H]1CC[C@@]2(C)[C@@H](CC[C@@H]3[C@@H]2CC[C@]2(C)C(=O)[C@H](Br)C[C@@H]32)C1	0.15 to 0.38	Toxic	Active	54	selectivity ratio [7]: 3.2; EC50 (Trypanosoma cruzi [9]): 16.7 µM
C[C@]12CC[C@H](OCC(=O)N3CCOCC3)C[C@@H]1CC[C@@H]1[C@@H]2CC[C@]2(C)C(=O)[C@H](Br)C[C@@H]12		Toxic	Active	5.6	selectivity ratio [7]: 1.8; EC50 (Trypanosoma cruzi [9]): 3.2 µM; Ratio IC50 [3]: 5 to 10
C[C@]12CC[C@H](OC(=O)CN3CCOCC3)C[C@@H]1CC[C@@H]1[C@@H]2CC[C@]2(C)C(=O)CC[C@@H]12	10				
C[C@]12CC[C@H](OCCS(=O)(=O)N3CCOCC3)C[C@@H]1CC[C@@H]1[C@@H]2CC[C@]2(C)C(=O)[C@H](Br)C[C@@H]12		Toxic	Active	8.5	selectivity ratio [7]: 3.5; Activity (Trypanosoma cruzi [10]): Active; EC50 (Trypanosoma cruzi [9]): 2.4 µM; Ratio IC50 [3]: 5 to 10
C[C@]12CC[C@H](OC[C@H](O)CN3CCOCC3)C[C@@H]1CC[C@@H]1[C@@H]2CC[C@]2(C)C(=O)CC[C@@H]12					IC50 [6]: > 40 µM
O=C(Cn1ccnc1[N+](=O)[O-])NCc1ccccc1 [BENZNIDAZOLE]				> 40	Activity (Trypanosoma cruzi [10]): Active
C[C@]12CC[C@H](OC(=O)CCN3CCOCC3)C[C@@H]1CC[C@@H]1[C@@H]2CC[C@]2(C)C(=O)CC[C@@H]12	10				
C[C@]12CC[C@H](O)C[C@@H]1CC[C@@H]1[C@@H]2CC[C@]2(C)C(=O)CC[C@@H]12 [EPIANDROSTERONE]		Non-Toxic	inactive		
CN1CCN(CCS(=O)(=O)O[C@H]2CC[C@@]3(C)[C@@H](CC[C@@H]4[C@@H]3CC[C@]3(C)C(=O)CC[C@@H]43)C2)CC1	5	Non-Toxic	inactive		
CN1CCN(C[C@H](O)CO[C@H]2CC[C@@]3(C)[C@@H](CC[C@@H]4[C@@H]3CC[C@]3(C)C(=O)CC[C@@H]43)C2)CC1					IC50 [6]: > 40 µM
CC(=O)O[C@H]1CC[C@@]2(C)[C@@H](CC[C@@H]3[C@@H]2CC[C@]2(C)C(=O)CC[C@@H]32)C1	> 3	Non-Toxic	inactive		
CN1CCN(CC(=O)O[C@H]2CC[C@@]3(C)[C@@H](CC[C@@H]4[C@@H]3CC[C@]3(C)C(=O)CC[C@@H]43)C2)CC1	10				
CC(C)CO[C@H]1CC[C@@]2(C)[C@@H](CC[C@@H]3[C@@H]2CC[C@]2(C)C(=O)[C@H](Br)C[C@@H]32)C1		Toxic	Active	12.3	selectivity ratio [7]: 2.9; Activity (Trypanosoma cruzi [10]): Active; EC50 (Trypanosoma cruzi [9]): 4.2 µM
C[C@]12CC[C@H](OS(=O)(=O)CCN3CCOCC3)C[C@@H]1CC[C@@H]1[C@@H]2CC[C@]2(C)C(=O)CC[C@@H]12	5	Non-Toxic	inactive		
